In publication PMC9218685, “Legume Plant Peptides as Sources of Novel Antimicrobial Molecules Against Human Pathogens” (Frontiers in Molecular Biosciences, 2022):
≈ marks a conversion by molar mass, not a printed value. Ends that are not written are not given here. Peptide text beside a SMILES is read from it.

What was measured:
[1] = tested on: Enterococcus faecalis (ATCC 29212); format: cell-based; conditions: for Ability to kill E. faecalis: 3 h, ~10^7 log phase bacteria, peptides ≤25 µM; for MBC Enterococcus faecalis: ATCC 29212, 3 h
How it was run: (§1)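 About 10^7 log-phase bacteria were treated for 3 h in potassium-phosphate buffer (pH 7.4) with 2-fold peptide dilutions from 25 µM downward. MBC was the lowest concentration that completely eliminated viable bacteria.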

[2] = tested on: Escherichia coli (ATCC 8739); format: cell-based; conditions: ATCC 8739, 3 h
How it was run: as §1

[3] = tested on: Listeria monocytogenes (ATCC 19111); format: cell-based; conditions: ATCC 19111, 3 h
How it was run: as §1

[4] = tested on: Pseudomonas aeruginosa (ATCC 27853); format: cell-based; conditions: ATCC 27853, 3 h
How it was run: as §1

[5] = tested on: Salmonella enterica (ATCC 13076); format: cell-based; conditions: ATCC 13076, 3 h
How it was run: as §1

[6] = tested on: E. coli, S. enteritidis, P. aeruginosa, L. monocytogenes, S. aureus, E. faecalis, K. pneumoniae and A. baumannii; assay: Antimicrobial activity assay, spectrum over the eight tested pathogenic bacteria; format: cell-based; conditions: 3 h treatment of ~10^7 log phase bacteria, peptides 25 to 0.8 µM; active = MBC ≤25 µM
How it was run: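 MBC taken as the lowest peptide concentration leaving no viable bacteria after 3 h exposure of ~10^7 log-phase cells. Peptides tested by 2-fold serial dilution, 25 µM down to 0.8 µM, in PPB (pH 7.4). Gram-positive and Gram-negative reference strains from ATCC, NCTC and HNCMO collections.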

[7] = peptides carrying a StrepII tag at their C-terminus, 25 µM, 10% Fetal Bovine Serum, 37°C, 18 h; StrepTactin-HRP Western blot
Experimental: Peptides were incubated in 10% Fetal Bovine Serum at 37°C for 18 h. Full length NCRs were used at 25 μM, while short derivatives at 50 μM. The serum proteins and peptides were separated by sodium dodecyl sulfate-polyacrylamide gel electrophoresis (SDS-PAGE, 12% bis-tris gel, MES buffer pH 7.3) and visualized by Coomassie blue staining. NCRs with StrepII tag at their C-terminus were also detected by Western blot analysis using Precision Protein StrepTactin-HRP conjugate antibody (BioRad) and Clarity Western ECL (BioRad) for chemiluminescence detection according to the supplier.
FIGURE S3 Serum stability assay. Full length NCRs, StrepII-tagged NCR peptides (25 µM) and shorter NCR derivatives (50 µM) were incubated in water or in 10% Fetal Bovine Serum (FBS) for 18 hours at 37°C. Serum proteins and the peptides were separated by SDS-Page and visualized by Coomassie blue staining or in the case of StrepII-tagged NCRs also with Western blot. […]

[8] = tested on: Acinetobacter baumannii (ATCC 17978); assay: microbe, parasite or virus in culture; format: cell-based; conditions: for MBC Acinetobacter baumannii: ATCC 17978, 3 h
How it was run: as §1

[9] = tested on: Candida albicans W01 strain; assay: microbe, parasite or virus in culture; format: cell-based; conditions: W01 strain; read-out: MFC, minimal fungicidal concentration against C. albicans
How it was run: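 Anti-Candida testing followed Szerencsés et al. (2021), with two-fold peptide dilutions from 25 μM to 0.125 μM and miconazole from 10.24 mM to 0.1 μM. MFC taken as the lowest concentration completely eliminating viable C. albicans.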

[10] = tested on: Klebsiella pneumoniae (NCTC 13440); format: cell-based; conditions: NCTC 13440, 3 h
How it was run: as §1

[11] = tested on: Staphylococcus aureus (HNCMO112011); format: cell-based; conditions: HNCMO112011, 3 h
How it was run: as §1

A. baumannii = assay: Scanning electron microscopy of cell morphology; format: cell-based, Acinetobacter baumannii; conditions: 30 min treatment, peptide 1.6 or 3.125 µM as in Figure 3 legend
C. albicans = assay: Scanning electron microscopy of cell morphology; format: cell-based, Candida albicans; conditions: 30 min treatment, peptide 1.6, 3.125 or 25 µM as in Figure 4 legend
Experimental: A. baumannii and C. albicans were grown and treated the same way as for the membrane permeability assay. Cells were then fixed with 2.5% (v/v) glutaraldehyde in phosphate buffered saline (PBS, pH 7.4). 5 μl of the above bacterial and yeast suspensions were spotted on a silicon disk coated with 0.01% Poly-L-Lysine. The filters were washed twice with PBS and gradually dehydrated with ethanol series (30, 50, 70, 80%, and three times 100% ethanol, each for minimum 30 min). The samples were dried with a critical point dryer (K850: Quorum Technologies Ltd.), followed by 12 nm gold coating and observed under a JEOL JSM-7100F/LV scanning electron microscope.

[12] = tested on: Lambda DNA/HindIII marker; assay: Gel retardation assay (DNA aggregation); format: binding; conditions: 100 ng DNA, 5 or 10 µM peptide in water, 30 min at room temperature, 1% agarose gel
[13] = tested on: E. coli in vitro coupled transcription/translation; assay: In vitro transcription/translation assay (GFP production); format: biochemical; conditions: RTS 100 E. coli HY Kit, 100 µM peptide or streptomycin, 2 technical parallels
Experimental: RTS 100 E. coli HY Kit (biotechrabbit Gmbh, Germany, catalog number: BR1400102) was used for the in vitro transcription/translation assay, according to the protocol. pIVEX2.3 control vector was used to produce GFP protein and to measure the translational efficiency. The amount of GFP produced was measured using a Hidex Plate Reader (Hidex Sense Microplate Reader with Plate Reader Software version 5064). […] All peptides and streptomycin were used at 100 µM concentration.
FIGURE 5 GFP production by E. coli in vitro coupled transcription-translation assay in the presence of 100 µM NCR or streptomycin. GFP fluorescence represents the average values of 2 technical parallels with their respective standard deviations (SD). *: p < 0.05, ****: p < 0.0001, as determined by one-way ANOVA.

ITISNSSFGRIVYWNCKTDKDCKQHRGFNFRCRSGNCIPIRR-OH (cysteines drawn unpaired) [NCR183]
Ability to kill E. faecalis [1]: able to kill
MBC Enterococcus faecalis [1]: 25 µM
MBC Escherichia coli [2]: 6.25 µM
MBC Listeria monocytogenes [3]: 6.25 µM
MBC Pseudomonas aeruginosa [4]: 6.25 µM
MBC Salmonella enterica [5]: 25 µM
Antibacterial spectrum over the eight tested bacterial strains [6]: effective against five or four strains
Stability in serum by Western blot [7]: stable in the presence of FBS

CC[C@H](C)[C@H](NC(=O)[C@H](CS)NC(=O)[C@H](CCCCN)NC(=O)[C@@H](NC(=O)[C@@H](NC(=O)[C@H](Cc1ccccc1)NC(=O)[C@H](CCCCN)NC(=O)[C@H](CO)NC(=O)[C@H](CO)NC(=O)[C@@H](NC(=O)[C@H](CC(C)C)NC(=O)[C@H](CCCCN)NC(=O)[C@@H]1CCCN1C(=O)[C@H](CS)NC(=O)[C@H](CC(=O)O)NC(=O)[C@H](C)NC(=O)[C@@H](NC(=O)[C@@H](NC(=O)[C@H](CCCNC(=N)N)NC(=O)[C@H](CS)NC(=O)[C@H](CCC(=O)O)NC(=O)[C@@H](NC(=O)[C@H](CO)NC(=O)[C@@H](N)CCC(=O)O)[C@@H](C)CC)[C@@H](C)O)C(C)C)[C@@H](C)CC)C(C)C)[C@@H](C)CC)C(=O)N[C@@H](CCCCN)C(=O)N[C@@H](CCCCN)C(=O)N[C@@H](CCCNC(=N)N)C(=O)N[C@@H](CS)C(=O)N[C@H](C(=O)N[C@@H](C)C(=O)N[C@@H](CCC(N)=O)C(=O)N[C@@H](Cc1ccccc1)C(=O)N[C@@H](Cc1ccccc1)C(=O)N[C@@H](CCCCN)C(=O)O)C(C)C [MsNCR443] (H-ESIECRTVADCPKLISSKFVIKCIKKRCVAQFFK-OH; N-terminus assumed)
MBC Acinetobacter baumannii [8]: 1.6 µM (≈ 6.27 µg/mL)
MBC ([8]; ~10^7 log phase bacteria, Potassium-Phosphate Buffer pH 7.4, 3 h treatment, two-fold dilution series, lowest concentration completely eliminating viable bacteria, read-out: MBC, minimal bactericidal concentration against A. baumannii): 6.25 µM (≈ 24.5 µg/mL)
MFC [9]: 6.25 µM (≈ 24.5 µg/mL)
MBC Escherichia coli [2]: 1.6 µM (≈ 6.27 µg/mL)
MBC Klebsiella pneumoniae [10]: 12.5 µM (≈ 49 µg/mL)
MBC Listeria monocytogenes [3]: 12.5 µM (≈ 49 µg/mL)
MBC Pseudomonas aeruginosa [4]: 6.25 µM (≈ 24.5 µg/mL)
MBC Salmonella enterica [5]: 25 µM (≈ 98 µg/mL)
MBC Staphylococcus aureus [11]: 12.5 µM (≈ 49 µg/mL)
Antibacterial spectrum over the eight tested bacterial strains [6]: broad-spectrum activity
Morphology of A. baumannii cells by SEM (A. baumannii): Filament-like structures
Morphology of C. albicans cells by SEM (C. albicans): aggregation of shrunken cells in a spider net like matrix
Aggregation of HindIII-digested λ DNA (DNA retained in loading wells) [12]: did not

[H]/N=C(/N)N[C@H]1[C@H](O)[C@@H](O)[C@H](O[C@@H]2O[C@@H](C)[C@](O)(C=O)[C@H]2O[C@@H]2O[C@@H](CO)[C@H](O)[C@@H](O)[C@@H]2NC)[C@@H](N/C(N)=N\[H])[C@@H]1O [streptomycin]
Effect on GFP production (translation) [13]: inhibited strongly

CC[C@H](C)[C@H](N)C(=O)N[C@@H](CCCNC(=N)N)C(=O)N[C@H](C(=O)N[C@@H](Cc1c[nH]cn1)C(=O)N[C@@H](CS)C(=O)N[C@@H](CCCCN)C(=O)N[C@@H](CC(=O)O)C(=O)N[C@@H](CC(=O)O)C(=O)N[C@@H](Cc1ccccc1)C(=O)N[C@@H](CC(=O)O)C(=O)N[C@@H](CS)C(=O)N[C@H](C(=O)N[C@@H](CCC(=O)O)C(=O)N[C@@H](CC(N)=O)C(=O)N[C@@H](CCCNC(=N)N)C(=O)N[C@@H](CC(C)C)C(=O)N[C@@H](CCC(N)=O)C(=O)N[C@H](C(=O)NCC(=O)N[C@@H](CS)C(=O)N[C@@H](CCCNC(=N)N)C(=O)N[C@@H](CC(C)C)C(=O)N[C@@H](CCC(N)=O)C(=O)N[C@@H](CCCNC(=N)N)C(=O)N[C@@H](CCC(=O)O)C(=O)N[C@@H](CCCCN)C(=O)N1CCC[C@H]1C(=O)N[C@@H](CCCNC(=N)N)C(=O)N[C@@H](CS)C(=O)N[C@H](C(=O)N[C@@H](CC(N)=O)C(=O)N[C@@H](CC(C)C)C(=O)N[C@H](C(=O)N[C@@H](CS)C(=O)N[C@@H](CCCNC(=N)N)C(=O)N[C@@H](CS)C(=O)N[C@@H](CC(C)C)C(=O)N[C@@H](CCCNC(=N)N)C(=O)N[C@@H](CCCNC(=N)N)C(=O)O)C(C)C)C(C)C)C(C)C)[C@@H](C)CC)[C@@H](C)CC [NCR055] (H-IRIHCKDDFDCIENRLQVGCRLQREKPRCVNLVCRCLRR-OH; N-terminus assumed)
MBC Acinetobacter baumannii [8]: 3.125 µM (≈ 14.9 µg/mL)
Ability to kill E. faecalis [1]: able to kill
MBC Enterococcus faecalis [1]: 12.5 µM (≈ 59.5 µg/mL)
MBC Escherichia coli [2]: 6.25 µM (≈ 29.7 µg/mL)
MBC Listeria monocytogenes [3]: 3.125 µM (≈ 14.9 µg/mL)
MBC Pseudomonas aeruginosa [4]: 6.25 µM (≈ 29.7 µg/mL)
MBC Salmonella enterica [5]: 6.25 µM (≈ 29.7 µg/mL)
Antibacterial spectrum over the eight tested bacterial strains [6]: effective against six bacterial strains but not against S. aureus and K. pneumonia
Stability in serum by Western blot [7]: stable in the presence of FBS
